This test relates to HCT116 human colon carcinoma. The test is described as follows: HCT116-e256 study: tumor growth delay of subcutaneous HCT116 xenografts in nude mice. Conditions: for Median TTE (time to endpoint): endpoint 2000 mm^3, control 25.1; for tumor growth delay (TGD): percent of median TTE of untreated group. The test is classed as in vivo. Here is the method: Tumors were measured twice weekly during the experiment, and each animal was euthanized when its tumor reached the endpoint volume of 2000 mm^3 or on the last day of the study (Day 59), whichever came first.
Treatment outcome was assessed by tumor growth delay (TGD), defined as the difference in median time to endpoint tumor burden in a treatment group compared to a control group.
a. Mice. […] The mice were housed on irradiated ALPHA-Dri® Bed-O'Cobs® Laboratory Animal Bedding in static microisolators on a 12-hour light cycle at 21-22° C. (70-72° F.) and 40-60% humidity. Testing facilities complied with the recommendations of the Guide for Care and Use of Laboratory Animals with respect to restraint, husbandry, surgical procedures, feed and fluid regulation, and veterinary care. The animal care and use program at the testing facility is accredited by AAALAC, which assures compliance with accepted standards for the used and care of laboratory animals.
b. Tumor Implantation. […] On the day of tumor implant, the cells were trypsinized, harvested by centrifugation and resuspended in phosphate buffered saline. Each mouse received 5×10^6 HCT116 tumor cells in 0.2 mL implanted subcutaneously in the right flank, and tumor growth was monitored. […] Tumor volume was calculated using the formula: […]
c. Therapeutic Agents. […] The 0.5 mg/mL dosing solution was prepared by 2-fold dilution in distilled water. Both solutions were prepared fresh for each dose administered.
Dosing solutions of 0.75 and 1.5 mg/mL were formulated fresh for each dose by diluting the stock solution ten-fold with D5W.
d. Treatment Plan. […] Note the routes of administration and schedules detailed in Table 10. All doses were given in volumes of 0.2 mL per 20 g of body weight (10 mL/kg), and were scaled to the body weight of the animal.
e. Endpoint. Tumors were measured twice weekly using calipers. Each animal was euthanized when its tumor reached the endpoint size of 2000 mm^3 or at the conclusion of the study on Day 59, whichever came first. The time to endpoint (TTE) for each mouse was calculated from the following equation: […]
where b is the intercept and m is the slope of the line obtained by linear regression of a log-transformed tumor growth data set. The data set was comprised of the first observation that exceeded the study endpoint volume and the three consecutive observations that immediately preceded the attainment of the endpoint volume. […] Animals classified as NTR (non-treatment-related) deaths due to accident (NTRa) or due to unknown causes (NTRu) were excluded from TTE calculations (and all further analyses). Animals classified as TR (treatment-related) deaths or NTRm (non-treatment-related death due to metastasis) were assigned a TTE value equal to the day of death.
Treatment outcome was evaluated by tumor growth delay (TGD), which is defined as the increase in the median time to endpoint (TTE) in a treatment group compared to the control group:
Treatment may cause partial regression (PR) or complete regression (CR) of the tumor in an animal. […] An animal with a CR response at the termination of a study is additionally classified as a tumor-free survivor (TFS). Regression responses were monitored and recorded.
g. Statistical and Graphical Analyses. The Logrank test was used to analyze the significance of the differences between the TTE values of treated and control groups. Two-tailed statistical analyses were conducted at significance level P=0.05.
Median tumor growth curves show group median tumor volumes as a function of time. When an animal exited the study due to tumor size, the final tumor volume recorded for the animal was included with the data used to calculate the group median tumor volume at subsequent time points. Curves were truncated after 50% of the animals in a group had exited the study, or after the second TR death in a group, whichever came first (see the exception in FIG. 8).

Where [1] appears, read: Groups 2,4,6,8,10: elsamitrucin 10 mg/kg ip q4d x3, paclitaxel 15 mg/kg iv qod x5, cisplatin 2.7 mg/kg ip qd x5.
[2] abbreviates: Groups 3,5,7,9,11: elsamitrucin 5 mg/kg ip q4d x3, paclitaxel 7.5 mg/kg iv qod x5, cisplatin […] ip qd x5.

Each structure is given as a SMILES string.

In the case of `N.N.[Cl][Pt][Cl]` [Cisplatin, cisplatin], under setting [1], the “% TGD = [(T − C)/C] × 100” value is listed as 23%, the “No. of CR (complete regression)” value is 0, the “No. of PR (partial regression)” value was 0 and the “No. of TFS (tumor free survivor)” value is on record as 0. Further, under setting [1], the “T − C (difference between median TTE of treated versus control group)” value is on record as 5.7 days and the “Median TTE (time to endpoint)” value is given as 30.8 days. In addition, under setting [2], the “% TGD = [(T − C)/C] × 100” value was determined as 1%, the “No. of CR (complete regression)” value is 0, the “No. of PR (partial regression)” value amounted to 0 and the “No. of TFS (tumor free survivor)” value amounted to 0. Under setting [2], the “T − C (difference between median TTE of treated versus control group)” value was 0.2 days and the “Median TTE (time to endpoint)” value amounted to 25.3 days. The “tumor growth delay (TGD)” value (higher dose level) amounted to 23%. The “tumor growth delay (TGD)” value (lower dose level) is 1%.

With `CO[C@@H]1[C@@H](N)[C@@H](O[C@H]2[C@H](Oc3cccc4c(O)c5c(=O)oc6ccc(C)c7c(=O)oc(c34)c5c67)O[C@H](C)[C@H](O)[C@]2(C)O)O[C@H](C)[C@@H]1O` [Elsamitrucin, benzo(h)(1)benzopyrano(5,4,3-cde)(1)ebnzopyran-5,12-dione,10((2-O-(2-amino-2,6-dideoxy-3-O-methyl-alpha-D-galactopyranosyl)-6-deoxy-3-C-methyl-beta-D-galactopyranosyl)oxy)-6-hydroxy-1-methyl], the “MTV (n) Day 59 (median tumor volume)” value (Groups 2,4,6,8,10: elsamitrucin 10 mg/kg ip q4d x3, paclitaxel 15 mg/kg iv qod x5, animals remaining on Day 59, n in brackets) was 88 (1) mm^3. Also, under setting [1], the “% TGD = [(T − C)/C] × 100” value was determined as 8%, the “No. of CR (complete regression)” value is reported as 0, the “No. of PR (partial regression)” value came out at 0 and the “No. of TFS (tumor free survivor)” value was found to be 0. For the same molecule, under setting [1], the “T − C (difference between median TTE of treated versus control group)” value is 2.0 days and the “Median TTE (time to endpoint)” value was found to be 27.1 days. For the same molecule, under setting [2], the “% TGD = [(T − C)/C] × 100” value was 6%, the “No. of CR (complete regression)” value turned out to be 0, the “No. of PR (partial regression)” value came out at 0 and the “No. of TFS (tumor free survivor)” value was determined as 0. Under setting [2], the “T − C (difference between median TTE of treated versus control group)” value is 1.4 days and the “Median TTE (time to endpoint)” value is listed as 26.5 days. In addition, the tumor regressions result (elsamitrucin monotherapy groups, 10 or 5 mg/kg i.p. q4d x3) was “No tumor regressions”.

On to `CC(=O)O[C@H]1C(=O)[C@@]2(C)[C@H]([C@H](OC(=O)c3ccccc3)[C@]3(O)C[C@H](OC(=O)[C@H](O)[C@@H](NC(=O)c4ccccc4)c4ccccc4)C(C)=C1C3(C)C)[C@]1(OC(C)=O)CO[C@@H]1C[C@@H]2O` [Paclitaxel, paclitaxel], for which, under setting [1], the “% TGD = [(T − C)/C] × 100” value is reported as 59%, the “No. of CR (complete regression)” value was found to be 0, the “No. of PR (partial regression)” value is given as 1 and the “No. of TFS (tumor free survivor)” value stood at 0. Besides, under setting [1], the “T − C (difference between median TTE of treated versus control group)” value was 14.7 days and the “Median TTE (time to endpoint)” value is on record as 39.8 days. Besides, under setting [2], the “% TGD = [(T − C)/C] × 100” value was 22%, the “No. of CR (complete regression)” value worked out at 0, the “No. of PR (partial regression)” value was 0 and the “No. of TFS (tumor free survivor)” value is listed as 0. Under setting [2], the “T − C (difference between median TTE of treated versus control group)” value was 5.6 days and the “Median TTE (time to endpoint)” value was found to be 30.7 days. The partial regression response (higher dose level, animals of ten) is on record as 1/10.

The values are drawn from patent publication US20080181971A1, “Combination Cancer Treatments Comprising Elsamitrucin and Other Agents” (priority 2007, published 2008).
